# According to patent US8217071B2, “Use of inhibitors of the degradation of p27, in particular Argyrin and derivatives thereof, for the treatment of proliferative diseases” (Helmholtz Zentrum für Infektionsforschung GmbH, priority 2007, dated 2012):
# “Also recorded” adds a separate entry of the source. Numbered stars: 1 amine (or outer) side, 2 acyl side, 3 side chain; on linkers, the order of the positions; unused ones are H or OH. Square brackets hold non-standard residues; d marks the D form. Peptide text beside a SMILES is read from it. dAla(ψthiazole) = C[C@@H](N[*:1])c1nc(C(=O)[*:2])cs1; Trp(4-OMe) = COc1cccc2[nH]cc(C[C@H](N)C(=O)O)c12; Dha = C=C(N)C(=O)O; Sar = CNCC(=O)O
# Legend:
# [1] = test system: SW-480 (colon cancer cell line); assay: MTT-test proliferation of SW-480; assay type: cell-based, human; details: half-maximal inhibition of proliferation
# Experimental: (§1) MTT assays were done as previously described (Sasse, F. et al. Argyrins, immunosuppressive cyclic peptides from myxobacteria. I. Production, isolation, physico-chemical and biological properties. J Antibiot (Tokyo) 55, 543-51 (2002)). TUNEL staining of tissue sections was performed on 10 micrometer sections which were deparafinised and treated as recommended by the manufacturer. (In Situ Cell Death Detection Kit, Fluorescein; ROCHE, Cat #11 684 795 910). Flow cytometric analysis of cultured cells was done using a Becton Dickinson fluorescence cytometer as previously described (Malek, N. P. et al. A mouse knock-in model exposes sequential proteolytic pathways that regulate p27^Kip1 in G1 and S phase. Nature 413, 323-7 (2001)). Analysis of the distribution of cells in the cell cycle and the sub-G1 fraction was done using Cell Quest software. A histone-associated-DNA-fragments ELISA was used to determine the number of apoptotic cells according to manufacturers instructions (Roche #11 774425001).
# [2] = test system: MCF7 (breast cancer); assay: Flow cytometry cell cycle / sub-G1 analysis; assay type: cell-based, human; details: at ranges of IC50; sub G1 phase fraction
# Experimental: (§2) The expression levels of p27^kip1 were determined at the indicated timepoints by western blotting and normalized against actin expression which was used as an internal control.
# as §1
# [3] = test system: HCT116 colon carcinoma cells; assay: Flow cytometry cell cycle / sub-G1 analysis; assay type: cell-based, human; details: at ranges of IC50
# Experimental: as §2, §1
# [4] = test system: SW480 colon carcinoma cell line; assay: Flow cytometry cell cycle / sub-G1 analysis; assay type: cell-based, human; details: at ranges of IC50; sub G1 phase fraction
# Experimental: as §2, §1
# [5] = test system: primary human fibroblasts; assay: Flow cytometry cell cycle / sub-G1 analysis; assay type: cell-based; details: at ranges of IC50
# Experimental: as §2, §1
# [6] = Body weight and tolerability of treated tumour bearing mice; assay type: in vivo
# [7] = test system: p27^kip1; assay: p27^kip1 half life in cycloheximide treated cells; assay type: cell-based, human; details: HeLa and SW480 cells, cycloheximide 25 μg/mL
# Experimental: The inventors therefore conclude that Argyrin A prevents the degradation of p27 due to its proteasome inhibitory activity in vivo and induces apoptosis or G1 arrest in a variety of different tumour cell lines.
# as §2
# [8] = test system: SW-480 (colon cancer); assay: MIC (visual), serial dilution, SW-480; assay type: cell-based, human; details: minimal concentration of a serial dilution exhibiting a visual effect
# From the text: The following table summarizes the effects of argyrin-derivatives A to H on two cancer cell lines, H15 (cervix carcinoma) and SW-480 (colon cancer). In order to test the efficacy, a p27-GFP-clone was used.
# [9] = test system: HCT116 colon carcinoma xenotransplant tumours; assay: HCT116 xenotransplant tumours in nu/nu mice; assay type: in vivo, mouse; details: HCT116 derived tumor-xenografts
# Experimental: Treatment with Argyrin A or bortezomib was started when these tumours reached a volume of 200 mm3. […] (n=8 Argyrin A, n=8 Bortezomib, n=6 PBS/EtOH) b) The pictures show the macroscopic appearance of a xenotransplant tumour after 10 days of treatment with Argyrin A. Note the large necrotic centre of the explanted tumour. c) After a single injection of Argyrin A (0.15 mg/kg bodyweight) or bortezomib (1.0 mg/kg bodyweight) tumours were explanted at the indicated time points and blood vessels in the tumour tissue were co-stained for CD31 and p27. […] Note the swelling of the endothelial cell (“E”) and the occlusion of the lumen (“L”) by erythrocytes after 90 minutes of Argyrin A treatment. The arrow marks the detachment of endothelial cells after 48 h of Argyrin A treatment. […] Tube length (f) and blood vessel like […] structures were determined using photographs of HUVEC cultures. The micrographs show representative examples of HUVEC cultures under the indicated conditions.
# 1×10^7 SW480 cells or HCT116 cells (in 100 microliters DMEM medium and 100 microliters matrigel) were s.c. injected into the flanks of NMRI nu/nu mice. Tumours grew for approx. 18 days until they reached appropriate size (200 mm3). Tumour size was measured with a digital calliper and calculated with the help of the following formula: (Length×width2)*π/6. […]
# [10] = target: T1, purified human 20S proteasome (Homo sapiens, UniProt P28072+P28074+Q99436); assay: Proteasome assay with purified 20S proteasome, fluorogenic peptide substrates; assay type: biochemical; details: purified human erythrocyte derived 20S proteasome
# T1 construct: using erythrocyte-derived 20S proteasome (Biomol International, #LP PW8720); purchased Biomol International #LP PW8720; host or cells: human erythrocytes
# Experimental: as §2
# Proteasome assays with purified 20S proteasome were performed as previously described (Lightcap, E. S. et al. Proteasome inhibition measurements: clinical application. Clin Chem 46, 673-83 (2000)) using erythrocyte-derived 20S proteasome (Biomol International, #LP PW8720) and fluorometric substrates Succ-LLVY-AMC, BZ-VGR-AMC and Z-Lle-AMC (Biomol International, LP PW9905) as probes according to the manufacturers instructions. Proteasome extraction from cells and tumour sections was done as previously described (Crawford, L. J. et al. Comparative selectivity and specificity of the proteasome inhibitors BzLLLCOCHO, PS-341, and MG-132. Cancer Res 66, 6379-86 (2006)). Briefly cells (MEF or MCF-7) or tissue sample homogenate (tumour sections) were re-suspended in 1 mL ATP/DTT lysis buffer (10 mmol/L Tris-HCl (pH 7.8), 5 mmol/L ATP, 0.5 mmol/L DTT, 5 mmol/L MgCl2), and incubated on ice for 10 minutes, followed by sonication for 15 seconds. […] Protein concentration of the samples was measured using a coomassie protein assay (Pierce, Rockford, Ill.).
# [11] = test system: p53, p21, BAX and NfκB; assay: Accumulation of proteasome substrates by western blotting; assay type: cell-based, human; details: SW480 and HCT116 cell lines
# Experimental: as §2
# Immunohistochemical staining of mouse tumour tissue, western Blotting and immunofluorescence experiments were done as previously described (Timmerbeul, I. et al. Testing the importance of p27 degradation by the SCFskp2 pathway in murine models of lung and colon cancer. Proc Natl Acad Sci USA 103, 14009-14 (2006). Kossatz, U. et al. C-terminal phosphorylation controls the stability and function of p27^kip1. Embo J 25, 5159-70 (2006).). The following antibodies were used: p27 (Cat. No. K25020-150; Transduction Labs), p21 (N20; Santa Cruz), p53 (FL-393; Santa Cruz), NfKB (C-20; Santa Cruz), Bax (P-19; Santa Cruz), Alexa fluor 488 (# A11001; Invitrogen), 20S-proteasome subunit beta 2 (Z) (PW9300; Bio-mol, for human cells), 20S-proteasome subunit beta 2 (Z) (PW8145; BIO TREND, for mouse cells); 20S proteasome subunit beta 1(Y) (PW8140; BIO TREND), 20S proteasome subunit beta 5 (PW8895; BIO TREND); PECAM Antibody clone MEC 13.3 (#550274; BD Pharmingen).
smiles,measurement,setting,value
C=C1NC(=O)[C@@H](C)NC(=O)CNC(=O)[C@H](Cc2c[nH]c3cccc(OC)c23)NC(=O)[C@H](Cc2c[nH]c3ccccc23)NC(=O)c2csc(n2)[C@@H](C)NC(=O)CN(C)C1=O [Argyrin A] (cyclo(W[Trp(4-OMe)]G[dA][Dha][Sar][dAla(ψthiazole)])),IC-50 SW-480,[1],Ca. 0.05 μg/ml
same,cellular phenotype,[2],underwent apoptosis
same,cellular phenotype,[3],stopped to proliferate
same,cellular phenotype,[4],underwent apoptosis
same,cellular phenotype,[5],stopped to proliferate
same,"discomfort, weight loss, disease / tolerability",[6],"very well tolerated; also recorded: did not observe any signs of discomfort, weight loss"
same,p27 turnover,[7],complete block
same,MIC (visual) SW-480,[8],4 µg/mL
same,tumour volume,[9],significant reduction
same,"caspase, trypsin and chymotrypsin like proteasome activities",[10],dose dependent inhibition
same,"levels of proteasome substrates p53, p21, BAX and NfκB",[11],accumulated
